From publication PMC5867518 (Cell metabolism, 2015)

Columns and labels:
Test in all cases: PI3-kinase
Format in all cases: biochemical
PI3Kα (p110α/p85α) = PI3Kα (p110α/p85α) (Homo sapiens, UniProt P42336)
PI3Kδ (p110δ/p85α) = PI3Kδ (p110δ/p85α) (Homo sapiens, UniProt O00329)
PI3Kγ (p110γ) = PI3Kγ (p110γ) (Homo sapiens, UniProt P48736)
Chain of PI3Kγ (p110γ) (P48736 whole entry): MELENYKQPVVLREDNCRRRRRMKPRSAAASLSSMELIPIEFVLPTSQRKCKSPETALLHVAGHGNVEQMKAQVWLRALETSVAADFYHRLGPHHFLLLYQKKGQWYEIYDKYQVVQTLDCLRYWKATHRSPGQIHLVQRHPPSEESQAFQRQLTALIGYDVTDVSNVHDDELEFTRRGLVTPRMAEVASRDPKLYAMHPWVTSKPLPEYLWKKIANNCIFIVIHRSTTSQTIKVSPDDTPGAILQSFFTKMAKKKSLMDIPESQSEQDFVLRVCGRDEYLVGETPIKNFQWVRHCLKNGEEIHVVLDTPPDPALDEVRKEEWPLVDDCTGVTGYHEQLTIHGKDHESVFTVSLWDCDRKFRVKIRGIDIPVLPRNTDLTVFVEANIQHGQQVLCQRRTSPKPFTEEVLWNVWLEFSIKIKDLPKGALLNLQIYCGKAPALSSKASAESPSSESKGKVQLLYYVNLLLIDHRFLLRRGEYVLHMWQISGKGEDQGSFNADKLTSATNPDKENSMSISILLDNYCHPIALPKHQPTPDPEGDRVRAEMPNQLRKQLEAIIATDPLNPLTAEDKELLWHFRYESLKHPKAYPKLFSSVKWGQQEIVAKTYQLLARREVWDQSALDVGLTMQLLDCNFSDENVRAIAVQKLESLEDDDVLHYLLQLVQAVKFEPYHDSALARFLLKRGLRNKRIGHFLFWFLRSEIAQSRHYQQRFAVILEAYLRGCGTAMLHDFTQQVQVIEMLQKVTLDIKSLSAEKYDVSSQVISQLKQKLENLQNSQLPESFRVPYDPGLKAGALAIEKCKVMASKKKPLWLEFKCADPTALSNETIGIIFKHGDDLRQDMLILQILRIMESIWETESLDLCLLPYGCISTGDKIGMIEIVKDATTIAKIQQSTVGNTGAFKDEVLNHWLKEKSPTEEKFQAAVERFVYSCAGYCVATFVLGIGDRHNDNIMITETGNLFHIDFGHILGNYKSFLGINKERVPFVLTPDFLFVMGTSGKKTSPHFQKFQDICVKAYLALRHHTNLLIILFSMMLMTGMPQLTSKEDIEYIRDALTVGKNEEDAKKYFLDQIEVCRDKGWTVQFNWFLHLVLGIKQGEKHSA

Chain of PI3Kδ (p110δ/p85α) (O00329 whole entry): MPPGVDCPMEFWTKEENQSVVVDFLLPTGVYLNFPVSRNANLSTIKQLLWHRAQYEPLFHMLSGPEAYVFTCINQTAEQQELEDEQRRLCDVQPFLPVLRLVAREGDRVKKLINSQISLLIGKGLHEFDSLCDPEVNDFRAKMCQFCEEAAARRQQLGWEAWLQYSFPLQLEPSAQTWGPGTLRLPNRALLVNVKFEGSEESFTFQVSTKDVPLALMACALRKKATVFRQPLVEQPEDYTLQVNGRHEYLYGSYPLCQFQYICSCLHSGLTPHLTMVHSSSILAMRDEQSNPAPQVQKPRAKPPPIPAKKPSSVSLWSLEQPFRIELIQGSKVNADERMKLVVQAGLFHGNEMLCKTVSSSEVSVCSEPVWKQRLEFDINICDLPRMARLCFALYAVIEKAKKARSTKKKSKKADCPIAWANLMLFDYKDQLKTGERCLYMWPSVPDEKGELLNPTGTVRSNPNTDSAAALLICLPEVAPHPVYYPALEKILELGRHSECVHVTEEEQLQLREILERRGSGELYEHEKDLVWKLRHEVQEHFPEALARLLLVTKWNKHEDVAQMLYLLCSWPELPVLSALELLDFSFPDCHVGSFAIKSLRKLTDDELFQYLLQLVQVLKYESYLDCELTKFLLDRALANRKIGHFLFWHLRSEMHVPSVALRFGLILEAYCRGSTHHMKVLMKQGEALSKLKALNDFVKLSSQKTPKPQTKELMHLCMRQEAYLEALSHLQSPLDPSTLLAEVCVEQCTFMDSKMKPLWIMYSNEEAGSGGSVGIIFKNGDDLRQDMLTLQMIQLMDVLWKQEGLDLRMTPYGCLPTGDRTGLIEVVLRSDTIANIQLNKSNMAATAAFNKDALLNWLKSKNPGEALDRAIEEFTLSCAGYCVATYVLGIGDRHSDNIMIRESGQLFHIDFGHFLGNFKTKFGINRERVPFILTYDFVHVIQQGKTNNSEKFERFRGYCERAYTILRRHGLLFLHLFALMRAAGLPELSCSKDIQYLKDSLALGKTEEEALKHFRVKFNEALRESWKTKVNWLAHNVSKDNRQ
Chain of PI3Kδ (p110δ/p85α) (P27986 2-724 partner): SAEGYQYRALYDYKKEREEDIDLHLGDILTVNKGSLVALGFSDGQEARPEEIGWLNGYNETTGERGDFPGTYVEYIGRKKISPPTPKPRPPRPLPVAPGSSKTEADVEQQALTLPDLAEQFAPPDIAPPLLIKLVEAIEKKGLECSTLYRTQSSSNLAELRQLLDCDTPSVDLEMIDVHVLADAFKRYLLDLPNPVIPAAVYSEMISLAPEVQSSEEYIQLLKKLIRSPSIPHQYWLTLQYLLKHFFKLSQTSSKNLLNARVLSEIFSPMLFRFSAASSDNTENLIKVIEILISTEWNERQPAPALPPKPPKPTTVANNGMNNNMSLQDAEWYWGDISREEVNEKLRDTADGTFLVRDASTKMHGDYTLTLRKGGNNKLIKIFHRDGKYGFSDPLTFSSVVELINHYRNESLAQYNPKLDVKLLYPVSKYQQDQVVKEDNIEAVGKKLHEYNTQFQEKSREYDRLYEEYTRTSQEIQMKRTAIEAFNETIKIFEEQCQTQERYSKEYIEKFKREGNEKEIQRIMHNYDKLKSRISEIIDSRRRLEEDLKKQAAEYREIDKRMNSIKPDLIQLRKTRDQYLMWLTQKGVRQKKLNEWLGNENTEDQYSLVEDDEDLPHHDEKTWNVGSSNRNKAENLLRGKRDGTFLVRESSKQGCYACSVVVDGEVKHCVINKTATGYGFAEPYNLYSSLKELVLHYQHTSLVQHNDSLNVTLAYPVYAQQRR
Chain of PI3Kα (p110α/p85α) (P42336 whole entry): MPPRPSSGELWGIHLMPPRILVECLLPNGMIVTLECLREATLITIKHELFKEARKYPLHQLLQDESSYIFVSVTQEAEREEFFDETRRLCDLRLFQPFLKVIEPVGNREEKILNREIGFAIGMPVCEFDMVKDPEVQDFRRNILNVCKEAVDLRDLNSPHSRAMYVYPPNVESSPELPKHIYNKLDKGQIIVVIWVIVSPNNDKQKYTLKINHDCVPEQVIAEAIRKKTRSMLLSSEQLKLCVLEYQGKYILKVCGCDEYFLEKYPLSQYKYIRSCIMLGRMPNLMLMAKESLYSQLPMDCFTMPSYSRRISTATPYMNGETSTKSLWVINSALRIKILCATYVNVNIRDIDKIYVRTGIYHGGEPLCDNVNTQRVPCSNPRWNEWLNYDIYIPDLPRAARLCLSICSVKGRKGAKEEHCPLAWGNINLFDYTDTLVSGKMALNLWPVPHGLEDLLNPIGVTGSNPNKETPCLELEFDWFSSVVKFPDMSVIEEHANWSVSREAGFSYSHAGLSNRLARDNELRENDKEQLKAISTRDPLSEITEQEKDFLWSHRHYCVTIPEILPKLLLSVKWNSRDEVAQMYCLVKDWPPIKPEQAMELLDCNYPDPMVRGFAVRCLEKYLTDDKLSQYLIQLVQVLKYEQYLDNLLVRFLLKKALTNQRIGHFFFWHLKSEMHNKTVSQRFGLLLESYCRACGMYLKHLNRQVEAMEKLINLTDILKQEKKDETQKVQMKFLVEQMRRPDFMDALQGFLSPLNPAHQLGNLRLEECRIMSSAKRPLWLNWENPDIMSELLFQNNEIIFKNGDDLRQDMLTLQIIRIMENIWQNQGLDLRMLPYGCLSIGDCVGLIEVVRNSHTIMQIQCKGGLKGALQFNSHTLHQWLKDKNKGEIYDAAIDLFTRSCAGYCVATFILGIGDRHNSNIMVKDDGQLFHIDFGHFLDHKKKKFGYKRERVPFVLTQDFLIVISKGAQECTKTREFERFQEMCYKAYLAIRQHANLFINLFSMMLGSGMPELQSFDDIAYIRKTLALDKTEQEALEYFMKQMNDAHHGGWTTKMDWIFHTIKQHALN
Chain of PI3Kα (p110α/p85α) (P27986 2-724 partner): as the sequence (P27986 2-724 partner) above

CNIO-PI3Ki
IC50 (PI3Kα (p110α/p85α)): 2.4 nM | IC50 (PI3Kδ (p110δ/p85α)): 2.5 nM | IC50 (PI3Kγ (p110γ)): 44 nM
